In US20240116985A1, “STAPLED PEPTIDES AND METHODS THEREOF” (priority 2020, published 2024):
Values after ≈ are worked out from the molar mass of the structure shown. Read-outs that look alike come from different tables or passages of the source.

Legend:
[1] = biological target: T1, full-length beta-Catenin (Uniprot ID P35222) (Homo sapiens, UniProt P35222); assay: Fluorescence polarization IC50 (beta-catenin / 5FAM-TCF4 10-53 competition); type: binding; conditions: read-out: beta-Catenin FP IC50
T1 construct: 10 nM full-length beta-Catenin (Uniprot ID P35222)
T1 sequence (P35222 1-781): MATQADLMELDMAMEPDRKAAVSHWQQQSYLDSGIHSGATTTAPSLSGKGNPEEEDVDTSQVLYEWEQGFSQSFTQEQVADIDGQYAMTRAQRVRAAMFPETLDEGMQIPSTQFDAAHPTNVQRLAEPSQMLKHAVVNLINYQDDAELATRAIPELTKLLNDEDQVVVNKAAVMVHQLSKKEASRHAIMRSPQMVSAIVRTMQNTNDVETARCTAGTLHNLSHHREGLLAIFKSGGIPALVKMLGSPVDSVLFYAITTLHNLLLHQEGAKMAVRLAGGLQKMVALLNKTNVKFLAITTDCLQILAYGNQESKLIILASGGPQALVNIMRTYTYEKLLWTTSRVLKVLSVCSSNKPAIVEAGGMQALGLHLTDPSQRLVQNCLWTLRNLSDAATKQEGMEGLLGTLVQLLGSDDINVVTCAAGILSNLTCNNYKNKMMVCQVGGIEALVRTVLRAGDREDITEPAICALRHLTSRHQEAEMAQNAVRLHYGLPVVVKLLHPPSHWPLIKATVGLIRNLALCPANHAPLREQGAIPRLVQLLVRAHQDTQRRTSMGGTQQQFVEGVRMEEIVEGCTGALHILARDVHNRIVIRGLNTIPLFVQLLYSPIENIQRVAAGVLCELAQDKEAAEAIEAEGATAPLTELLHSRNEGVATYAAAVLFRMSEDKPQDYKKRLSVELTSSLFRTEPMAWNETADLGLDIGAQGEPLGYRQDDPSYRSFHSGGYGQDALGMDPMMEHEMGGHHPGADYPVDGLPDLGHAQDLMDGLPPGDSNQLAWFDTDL

[2] = CHI Log D procedure; type: physicochemical; conditions: pH 7.4, CHI Log D
[3] = Solubility in PBS; type: physicochemical; conditions: Solubility (uM)
In short: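 HPLC quantitation of peptide remaining in the PBS supernatant after ultracentrifugation, referenced to a 50 μM solution in DMSO.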

[4] = biological target: T2, beta-catenin/TCF4 engagement (Homo sapiens, UniProt P35222); assay: Nano-BRET target engagement assay (B-cat-Halo & TCF4-Luc in HEK293 cells); type: cell-based; conditions: read-out: NanoBRET Abs IC50
T2 construct: expressed in transfected cells; host or cells: HEK293
T2 sequence (P35222 1-781): T1 sequence (P35222 1-781)

[5] = tested on: TCF/LEF luciferase Reporter in DLD1 cells; assay: TCF reporter assay (DLD1 TCF/LEF luciferase reporter, Bright-Glo); type: cell-based; conditions: read-out: DLD1 4% Abs IC50; DLD1 reporter, 4%, absolute IC50
Description: Those skilled in the art will appreciate that other suitable reagents may be utilized and various parameters may be adjusted.
DLD1 reporter cell line was generated by using TCF/LEF luciferase Reporter Lentivirus (BPS Bioscience Catalog #79787). Parental DLD1 cells (ATCC@ CCL-221) were transfected with the lentivirus and followed by 3-day puromycin selection. Single clone was selected for Reporter assay.
On Day 1, cultured cells in flasks that are no more than about 60-70% confluent were washed with PBS and typsinized in 3 mL/T75 until cells were free floating. Spin down cells for 5 minutes at 1100RPM. While cells spin, determine the number of plates (3 compounds per plate) needed. After spinning, aspirate the supernatant gently and add 10 mL media (RPMI+4% FBS), and re-suspend and mix the cells gently. Count the cells twice in the cell counter Countess and take average of both the counts, and determine how many cells are needed. After plating cells at 5000 cells/well, seal with aerseal film. 90 uL cells/well. Incubate at 37° C. overnight, tap gently to mix and don't stack plates.
On Day 2, compounds were added. Stock solution was 10 mM. Make the DMSO containing media by adding 36 uL DMSO to 10 mL of media. Make the dilution wells by transferring 100 uL DMSO+Media into rows B-F of a protein LoBind 96-well plate. Row G is empty. Add any extra DMSO+media to row H. Transfer 4 uL of stock solution to Row A. One compound per column. Add 196 uL media to Row A, no DMSO in the media. Concentration of Row A was 200 uM. Mix well and do a 6 pt, 1:2 serial dilution, mix ×10 per transfer and change tips before each transfer. Removed excess volume from final well (row F) and discard. Transfer 10 uL of the compound containing media to cells with a multichannel according to plate maps. Add 60 uL DMSO containing media to the DMSO wells. The edge wells were typically not used in the assay and could be ignored if needed or replaced with PBS, but there typically were liquids in the wells. Cover plates with breathable plate sealer and incubate overnight.
A 96-well plate may be utilized to prepare dilution series for up to 12 compounds, each with several concentrations (e.g., 200, 100, 50, 25, 12.5, 6.25 and 0 uM; can be utilized as 100× depending on final test concentrations).
0 uM is the DMSO control for the whole plate. Edge well filled with 90 uL cells+10 uL DMSO containing media.
On Day 3, luciferase levels were assessed using Bright-Glo (Promega). Equilibrate Bright-Glo to room temperature before addition. 7 mL of mixed Bright-Gbo per plate. Unused Bright-Glo could be store at −80° C. Reconstituted reagent can be stored for up to 1 month at −80° C., or after one freeze-thaw. When ready to read, remove plates from incubator and let sit at room temperature for 15 minutes. Typically stagger taking out plates if reading multiple plates before adding the Bright-Glo. Add 90 uL/well Bright-Glo and shake gently for 3 minutes. Read luminescence on GloMax immediately using ‘BrightGlo’ programs.
Cellular activity was assessed using CTG. Equilibrate CTG reagents to room temperature. Equilibrate plates to room temp, e.g. 15 min. Use same time length for all plates. Add CTG reagent, 25 uL if using undiluted, or 90 uL if diluted 1 to 4. Shake for 2 min to induce cell lysis. Allow plate to incubate at RT for 10 min to stabilize lumine sent signal. Read luminesence using program ‘CellTiter-Glo’. Use Prism to find the Absolute IC50 (AbsIC50=X[50]) of each compound.

| IC50 [1] | chromatographic logD [2] | Solubility [3] | IC50 [4] | IC50 ([4]; absolute IC50) | Structure (SMILES) | IC50 [5] |
| --- | --- | --- | --- | --- | --- | --- |
| 34 nM | 2.41 | 14 µM (≈ 28.2 µg/mL) | 12.3 µM | – | CC(=O)N1CCC[C@]12CC=CCCCC1(CCCC=CCCCOC(=O)N3CC[C@@](C(=O)N[C@@H](Cc4ccccc4Cl)C(=O)N[C@@H](Cc4csc5ccccc45)C(=O)N[C@@H](CCC(N)=O)C(N)=O)(C3)NC(=O)[C@H](CC(C)C)NC(=O)[C@H](Cc3cccc(C(F)(F)F)c3)NC(=O)[C@H](C)NC(=O)[C@H](C)NC(=O)[C@H](CC(=O)O)NC(=O)[C@H](CC(=O)O)NC1=O)NC(=O)[C@H](CC(C)(C)C)NC(=O)[C@H](CC(=O)O)NC2=O (stereo partly drawn) [I-1122, Ac-PL3-Asp-Npg-B5-Asp-Asp-Ala-Ala-3F3MeF-Leu-PyrS2-2C1F-BztA-Gln-NH2] | – |
| 64 nM | 2.46 | 12 µM (≈ 24.2 µg/mL) | 28.5 µM | – | CC(=O)N1CCC[C@]12CC=CCCCC1(CCCC=CCCCOC(=O)N3CC[C@@](C(=O)N[C@@H](Cc4ccccc4Cl)C(=O)N[C@@H](Cc4csc5ccccc45)C(=O)N[C@@H](CCC(N)=O)C(N)=O)(C3)NC(=O)[C@H](CC(C)C)NC(=O)[C@H](Cc3ccc(C(F)(F)F)cc3)NC(=O)[C@H](C)NC(=O)[C@H](C)NC(=O)[C@H](CC(=O)O)NC(=O)[C@H](CC(=O)O)NC1=O)NC(=O)[C@H](CC(C)(C)C)NC(=O)[C@H](CC(=O)O)NC2=O (stereo partly drawn) [I-1123, Ac-PL3-Asp-Npg-B5-Asp-Asp-Ala-Ala-4F3MeF-Leu-PyrS2-2C1F-BztA-Gln-NH2] | – |
| 12 nM | 2.22 | 47 µM (≈ 91.2 µg/mL) | – | > 20 µM | COc1cccc(C[C@@H]2NC(=O)[C@H](C)NC(=O)[C@H](C)NC(=O)[C@H](CC(=O)O)NC(=O)[C@H](CC(=O)O)NC(=O)C3(CCCC=CCCCOC(=O)N4CC[C@@](C(=O)N[C@@H](Cc5ccccc5)C(=O)N[C@@H](Cc5csc6ccccc56)C(=O)N[C@@H](CCC(N)=O)C(N)=O)(C4)NC(=O)[C@H](CO)NC2=O)CCCC=CC[C@]2(CCCN2C(C)=O)C(=O)N[C@@H](CC(=O)O)C(=O)N[C@@H](CC2CCCCC2)C(=O)N3)c1 (stereo partly drawn) [I-1124, Ac-PL3-Asp-Cha-B5-Asp-Asp-Ala-Ala-3OMeF-Ser-PyrS2-Phe-BztA-Gln-NH2] | – |
| 16 nM | 2.39 | 45 µM (≈ 89.1 µg/mL) | – | > 20 µM | CC(=O)N1CCC[C@]12CC=CCCCC1(CCCC=CCCCOC(=O)N3CC[C@@](C(=O)N[C@@H](Cc4ccccc4)C(=O)N[C@@H](Cc4csc5ccccc45)C(=O)N[C@@H](CCC(N)=O)C(N)=O)(C3)NC(=O)[C@H](CO)NC(=O)[C@H](Cc3cccc(C(F)(F)F)c3)NC(=O)[C@H](C)NC(=O)[C@H](C)NC(=O)[C@H](CC(=O)O)NC(=O)[C@H](CC(=O)O)NC1=O)NC(=O)[C@H](CC1CCCCC1)NC(=O)[C@H](CC(=O)O)NC2=O (stereo partly drawn) [I-1125, Ac-PL3-Asp-Cha-B5-Asp-Asp-Ala-Ala-3F3MeF-Ser-PyrS2-Phe-BztA-Gln-NH2] | – |
| 32 nM | 2.42 | 49 µM (≈ 97 µg/mL) | 26.8 µM | – | CC(=O)N1CCC[C@]12CC=CCCCC1(CCCC=CCCCOC(=O)N3CC[C@@](C(=O)N[C@@H](Cc4ccccc4)C(=O)N[C@@H](Cc4csc5ccccc45)C(=O)N[C@@H](CCC(N)=O)C(N)=O)(C3)NC(=O)[C@H](CO)NC(=O)[C@H](Cc3ccc(C(F)(F)F)cc3)NC(=O)[C@H](C)NC(=O)[C@H](C)NC(=O)[C@H](CC(=O)O)NC(=O)[C@H](CC(=O)O)NC1=O)NC(=O)[C@H](CC1CCCCC1)NC(=O)[C@H](CC(=O)O)NC2=O (stereo partly drawn) [I-1126, Ac-PL3-Asp-Cha-B5-Asp-Asp-Ala-Ala-4F3MeF-Ser-PyrS2-Phe-BztA-Gln-NH2] | – |
| 18 nM | 2.18 | 47 µM (≈ 91.2 µg/mL) | 5.4 µM | – | COc1cccc(C[C@@H]2NC(=O)[C@H](C)NC(=O)[C@H](C)NC(=O)[C@H](CC(=O)O)NC(=O)[C@H](CC(=O)O)NC(=O)C3(CCCC=CCCCOC(=O)N4CC[C@@](C(=O)N[C@@H](Cc5ccccc5)C(=O)N[C@@H](Cc5csc6ccccc56)C(=O)N[C@@H](CCC(N)=O)C(N)=O)(C4)NC(=O)[C@H](CC(C)C)NC2=O)CCCC=CC[C@]2(CCCN2C(C)=O)C(=O)N[C@@H](CC(=O)O)C(=O)N[C@@H](CC(C)(C)C)C(=O)N3)c1 (stereo partly drawn) [I-1127, Ac-PL3-Asp-Npg-B5-Asp-Asp-Ala-Ala-3OMeF-Leu-PyrS2-Phe-BztA-Gln-NH2] | – |
| 20 nM | 2.3 | 23 µM (≈ 45.5 µg/mL) | 8.1 µM | – | CC(=O)N1CCC[C@]12CC=CCCCC1(CCCC=CCCCOC(=O)N3CC[C@@](C(=O)N[C@@H](Cc4ccccc4)C(=O)N[C@@H](Cc4csc5ccccc45)C(=O)N[C@@H](CCC(N)=O)C(N)=O)(C3)NC(=O)[C@H](CC(C)C)NC(=O)[C@H](Cc3cccc(C(F)(F)F)c3)NC(=O)[C@H](C)NC(=O)[C@H](C)NC(=O)[C@H](CC(=O)O)NC(=O)[C@H](CC(=O)O)NC1=O)NC(=O)[C@H](CC(C)(C)C)NC(=O)[C@H](CC(=O)O)NC2=O (stereo partly drawn) [I-1128, Ac-PL3-Asp-Npg-B5-Asp-Asp-Ala-Ala-3F3MeF-Leu-PyrS2-Phe-BztA-Gln-NH2] | – |

| Structure (SMILES) | IC50 [1] | chromatographic logD [2] | Solubility [3] | IC50 [4] | IC50 ([4]; absolute IC50) | IC50 [5] |
| --- | --- | --- | --- | --- | --- | --- |
| CC(=O)N1CCC[C@]12CC=CCCCC1(CCCC=CCCCOC(=O)N3CC[C@@](C(=O)N[C@@H](Cc4ccccc4C(F)(F)F)C(=O)N[C@@H](Cc4csc5ccccc45)C(=O)N[C@@H](CCC(N)=O)C(N)=O)(C3)NC(=O)[C@H](CC(C)C)NC(=O)[C@H](Cc3ccccc3)NC(=O)[C@H](C)NC(=O)[C@H](C)NC(=O)[C@H](Cc3cccc(C(=O)O)c3)NC(=O)[C@H](CC(=O)O)NC1=O)NC(=O)[C@H](CC(C)(C)C)NC(=O)[C@H](CC(=O)O)NC2=O (stereo partly drawn) [I-1466, Ac-PL3-Asp-Npg-B5-Asp-3COOHF-Ala-Ala-Phe-Leu-PyrS2-2F3MeF-BztA-Gln-NH2] | 10 nM | – | – | – | – | 700 nM |
